# Results from ChEMBL document CHEMBL1201862, “PubChem BioAssay data set” (2004).
# The source made the active and inactive calls.
# Key:
# [1] = target: Nuclear receptor subfamily 5 group A member 2 (Homo sapiens, UniProt O00482); assay type: functional, cell-based;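 further: HEK293T cells transfected with LRH-1 and a StAR promoter luciferase reporter; potency for inhibitors that lower LRH-1 driven reporter light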
# [2] = target: Steroidogenic factor 1 (Homo sapiens, UniProt Q13285); assay: Counterscreen for inverse agonists of the liver receptor homolog-1 (LRH-1; NR5A2): Luminescence-based cell-based high throughput dose response assay to identify inverse agonists of the Steroidogenic Factor 1 Nuclear Receptor (SF1; NR5A1).; assay type: functional
# [3] = nonselective StAR promoter luciferase inhibitors – cell-based, luminescence, luciferase reporter, counter-screen for LRH-1 inverse agonist project, dose response (AID 651969); assay type: functional
# [4] = target: T1, Corticotropin-releasing factor receptor 2/Corticotropin-releasing factor-binding protein (Homo sapiens, UniProt P24387+Q13324); assay: Dose Response confirmation of uHTS hits for small molecule antagonists of the CRF-binding protein and CRF-R2 receptor complex.; assay type: functional; conditions: read-out: IC50_Mean
# T1 sequence (Q13324 whole entry): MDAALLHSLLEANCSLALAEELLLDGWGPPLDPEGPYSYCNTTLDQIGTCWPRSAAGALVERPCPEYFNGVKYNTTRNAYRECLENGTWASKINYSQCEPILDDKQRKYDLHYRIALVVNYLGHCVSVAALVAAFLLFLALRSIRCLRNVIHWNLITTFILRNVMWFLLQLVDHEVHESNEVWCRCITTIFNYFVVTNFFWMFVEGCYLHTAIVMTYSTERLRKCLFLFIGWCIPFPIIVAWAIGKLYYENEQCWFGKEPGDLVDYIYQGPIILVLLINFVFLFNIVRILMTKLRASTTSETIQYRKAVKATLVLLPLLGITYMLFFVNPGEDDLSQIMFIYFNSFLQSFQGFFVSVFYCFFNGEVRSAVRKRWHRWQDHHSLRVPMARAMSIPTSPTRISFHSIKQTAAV
# T1 sequence (P24387 whole entry): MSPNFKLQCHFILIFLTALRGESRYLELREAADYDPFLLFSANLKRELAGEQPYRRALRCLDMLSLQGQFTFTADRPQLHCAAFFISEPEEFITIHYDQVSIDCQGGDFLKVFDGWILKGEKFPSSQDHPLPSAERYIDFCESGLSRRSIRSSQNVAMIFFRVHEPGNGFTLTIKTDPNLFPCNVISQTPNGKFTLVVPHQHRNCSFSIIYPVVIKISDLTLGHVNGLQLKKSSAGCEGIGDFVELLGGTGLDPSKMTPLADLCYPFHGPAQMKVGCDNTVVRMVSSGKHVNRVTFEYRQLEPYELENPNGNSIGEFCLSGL
# [5] = target: T1, Corticotropin-releasing factor receptor 2/Corticotropin-releasing factor-binding protein; assay: activators of CRF receptor 2 with binding protein – uHTS hits, confirmation (AID 602473); assay type: functional; conditions: read-out: EC50_Mean
# [6] = blockers of CRF-binding protein–CRF-R2 complex – cell-based, uHTS hits, 384-well, dose response (AID 651639); assay type: functional, Homo sapiens; conditions: read-out: IC50_Mean
# [7] = tested on: Vero; assay: viability of Vero cells under compound – cytotoxicity control for flavivirus capping enzyme inhibitors (AID 588742); assay type: functional; conditions: Chlorocebus sabaeus
# [8] = tested on: HEK293; assay: cells; assay type: functional, cell-based; conditions: Homo sapiens
# [9] = target: T2, Nuclear receptor subfamily 0 group B member 1 (Homo sapiens, UniProt P51843); assay: Luminescence-based cell-based high throughput dose response assay for inhibitors of the orphan nuclear receptor subfamily 0, group B, member 1 (DAX1; NR0B1). [Related pubchem assays (depositor defined):AID504766, AID504790]; assay type: functional
# T2 sequence (P51843 whole entry): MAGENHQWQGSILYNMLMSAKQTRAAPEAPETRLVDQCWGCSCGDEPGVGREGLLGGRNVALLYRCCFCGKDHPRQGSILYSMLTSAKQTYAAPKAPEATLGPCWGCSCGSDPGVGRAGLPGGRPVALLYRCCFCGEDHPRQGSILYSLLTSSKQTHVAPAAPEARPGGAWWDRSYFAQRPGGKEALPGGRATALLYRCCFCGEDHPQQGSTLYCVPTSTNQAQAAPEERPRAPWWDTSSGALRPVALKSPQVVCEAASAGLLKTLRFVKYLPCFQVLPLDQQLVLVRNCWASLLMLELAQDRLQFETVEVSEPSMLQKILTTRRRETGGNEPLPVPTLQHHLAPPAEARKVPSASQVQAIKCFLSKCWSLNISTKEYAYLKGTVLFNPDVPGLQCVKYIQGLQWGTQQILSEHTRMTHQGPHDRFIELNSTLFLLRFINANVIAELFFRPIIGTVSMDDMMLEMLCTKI
# [10] = target: T3, Small ubiquitin-related modifier 1 (Homo sapiens, UniProt P63165); assay: SUMO1 protein interaction blockers, potency – biochemical, fluorescence polarization, uHTS hits, dose response (AID 624382); assay type: functional; conditions: read-out: IC50_Mean
# [11] = target: T3, Small ubiquitin-related modifier 1; assay: SUMO1 protein-protein binding blockers, potency – biochemical, FRET, dose response (AID 624383); assay type: functional; conditions: read-out: IC50_Mean
# [12] = target: T4, Sentrin-specific protease 1 (Homo sapiens, UniProt Q9P0U3); assay: SENP1 catalytic domain blockers, concentration series – biochemical, kinetic FRET, dose response (AID 651697); assay type: functional; conditions: read-out: IC50_Mean
# T4 sequence (Q9P0U3 whole entry): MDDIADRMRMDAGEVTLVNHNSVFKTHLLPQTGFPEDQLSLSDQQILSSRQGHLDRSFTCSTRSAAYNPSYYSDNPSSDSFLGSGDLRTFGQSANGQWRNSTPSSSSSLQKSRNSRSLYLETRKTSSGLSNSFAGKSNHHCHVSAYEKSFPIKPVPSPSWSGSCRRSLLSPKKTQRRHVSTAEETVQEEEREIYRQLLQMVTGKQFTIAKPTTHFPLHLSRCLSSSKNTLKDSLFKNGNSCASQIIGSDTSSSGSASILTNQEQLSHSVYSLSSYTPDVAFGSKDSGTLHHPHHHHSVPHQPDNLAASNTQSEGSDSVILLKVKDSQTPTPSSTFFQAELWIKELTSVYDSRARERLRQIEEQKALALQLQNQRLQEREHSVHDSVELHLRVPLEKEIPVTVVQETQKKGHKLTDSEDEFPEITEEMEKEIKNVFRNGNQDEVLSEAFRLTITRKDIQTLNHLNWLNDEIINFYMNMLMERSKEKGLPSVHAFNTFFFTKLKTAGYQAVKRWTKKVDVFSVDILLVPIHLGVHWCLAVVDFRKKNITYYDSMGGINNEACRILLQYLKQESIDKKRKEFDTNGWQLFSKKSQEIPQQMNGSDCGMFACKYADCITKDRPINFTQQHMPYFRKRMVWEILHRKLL
# [13] = target: T4, Sentrin-specific protease 1; assay: Dose response confirmation of small molecule inhibitors of the catalytic domain of the SUMO protease, SENP1 in a FRET assay.; assay type: functional; conditions: read-out: IC50_Mean
# Steroidogenic factor 1, sequence (Q13285 whole entry): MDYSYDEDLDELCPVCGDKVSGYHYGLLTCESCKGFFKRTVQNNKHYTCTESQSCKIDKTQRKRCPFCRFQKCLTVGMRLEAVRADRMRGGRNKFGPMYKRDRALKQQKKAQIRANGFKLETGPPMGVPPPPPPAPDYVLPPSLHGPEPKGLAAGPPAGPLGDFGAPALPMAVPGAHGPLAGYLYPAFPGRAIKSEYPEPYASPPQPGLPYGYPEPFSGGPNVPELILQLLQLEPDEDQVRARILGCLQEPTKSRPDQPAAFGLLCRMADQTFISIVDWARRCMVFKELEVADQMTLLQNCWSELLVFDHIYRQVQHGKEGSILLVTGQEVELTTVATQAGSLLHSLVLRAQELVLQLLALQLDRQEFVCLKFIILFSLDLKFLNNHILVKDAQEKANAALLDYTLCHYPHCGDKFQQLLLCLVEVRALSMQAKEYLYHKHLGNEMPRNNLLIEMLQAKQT
# T3 sequence (P63165 whole entry): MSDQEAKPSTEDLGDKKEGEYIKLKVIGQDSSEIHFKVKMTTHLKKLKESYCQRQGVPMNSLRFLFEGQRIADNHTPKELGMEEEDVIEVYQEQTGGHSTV
# Nuclear receptor subfamily 5 group A member 2, sequence (O00482 whole entry): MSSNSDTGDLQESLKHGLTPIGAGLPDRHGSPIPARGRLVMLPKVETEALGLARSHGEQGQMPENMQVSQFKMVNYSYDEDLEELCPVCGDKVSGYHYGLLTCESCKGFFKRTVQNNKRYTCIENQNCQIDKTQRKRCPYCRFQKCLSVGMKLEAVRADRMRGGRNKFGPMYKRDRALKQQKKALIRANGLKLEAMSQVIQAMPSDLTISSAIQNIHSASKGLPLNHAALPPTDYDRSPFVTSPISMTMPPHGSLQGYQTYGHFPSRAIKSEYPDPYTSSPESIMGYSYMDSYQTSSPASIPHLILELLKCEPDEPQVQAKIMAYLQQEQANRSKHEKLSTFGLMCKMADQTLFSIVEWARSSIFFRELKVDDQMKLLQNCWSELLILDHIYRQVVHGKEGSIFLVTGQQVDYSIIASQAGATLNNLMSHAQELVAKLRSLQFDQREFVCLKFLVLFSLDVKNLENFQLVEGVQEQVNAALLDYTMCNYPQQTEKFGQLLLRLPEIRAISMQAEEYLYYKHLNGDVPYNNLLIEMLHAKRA
structure (smiles),measurement,setting,value
COc1cccc(C(=O)COc2cccc(NC(=O)c3cccc([N+](=O)[O-])c3)c2)c1,IC50,[1],0.443 µM (active)
same,IC50,[2],0.443 µM (active)
same,IC50,[3],10.9 µM (inactive)
Cc1ccccc1Cn1nc(C)c(NC(=O)c2cc(-c3cccs3)on2)c1C,IC50,[4],39.1 µM (active)
same,EC50,[5],> 53 µM (inactive)
same,IC50,[6],> 20 µM (inactive)
COC(=O)c1ccc(NC(=O)CSc2nn3c(=O)c(C)nnc3s2)cc1,IC50,[1],35.9 µM (inactive)
same,IC50,[2],35.9 µM (inactive)
same,IC50,[3],35.9 µM (inactive)
COc1ccc(CSc2nnc(NC(C)=O)s2)cc1[N+](=O)[O-],CC50,[7],> 40 µM (active)
COc1ccccc1N1CCN(S(=O)(=O)c2cc(C(F)(F)F)cc(C(F)(F)F)c2)CC1,IC50,[8],> 67.5 µM (inactive)
same,IC50,[9],> 67.5 µM (inactive)
Cc1ccc(S(=O)(=O)N2CCOCC2)cc1C(=O)OCC(=O)Nc1ccc2[nH]c(O)nc2c1,IC50,[10],> 66.6 µM (inactive)
same,IC50,[11],11.4 µM (active)
O=C(CN1C(=O)NC2(CCCC2)C1=O)NCC1CCCO1 (stereo unspecified),IC50,[8],> 67.5 µM (inactive)
same,IC50,[9],> 67.5 µM (inactive)
COc1cccc(C2(c3cccc(OC)c3)CC2C(=O)Nc2ccccc2Cl)c1 (stereo unspecified),IC50,[4],3.83 µM (active)
same,EC50,[5],> 53 µM (inactive)
same,IC50,[6],> 20 µM (inactive)
COc1cc(/C=C2\SC(=S)N(CC(=O)O)C2=O)ccc1OC(=O)c1ccco1,IC50,[12],4.52 µM (active)
same,IC50,[13],7.29 µM (active)
